The source of these data is paper PMC6345492, “Thioguanine-based DENV-2 NS2B/NS3 protease inhibitors: Virtual screening, synthesis, biological evaluation and molecular modelling” (PLoS ONE, 2019).

Like-named read-outs stand apart in the source and are kept apart here.

Assay [1] concerns the target T1, DENV-2 NS2B/NS3pro (Dengue virus type 2, UniProt P14340).
T1 construct: pQE30.CF40.gly(T).NS3pro expression plasmid; 6x-His (N); glycine linker (gly(T)) joining CF40 to NS3pro (C); made in house; host or cells: Escherichia coli strain XL1-Blue
In words: DENV-2 NS2B/NS3pro protease inhibition assay (fluorogenic Boc-GRR-MCA substrate). Particulars: for IC50: 3 μM protease, 25 μM substrate. The class given is biochemical. The procedure:
The DENV-2 NS2B/NS3pro expression was carried out according to the established method by Yusof et al., (2000) with minor modifications according to published articles. The plasmid encoding the NS2B/NS3 protease sequence from DENV-2 was transformed into Escherichia coli strain XL1-Blue transformed with pQE30.CF40.gly(T).NS3pro expression plasmid were grown in LB medium containing 10 μg/ml ampicillin at 37°C until the OD600 reached 0.6. First, the cells were incubated at 37°C, 200 rpm until OD600 reached ~0.6. One ml of isopropyl-β-D-thiogalactopyranoside (0.5 mM in LB medium) was added to the bacterial cells for 2 hours to induce protein expression. Expression of the recombinant protein was induced by the addition of […] IPTG and the culture was incubated for 2 hours.
The cells were harvested by centrifugation at 8000 rpm (Sorvall RC-5B Refrigerated Superspeed centrifuge) for 15 minutes at […]. The cell pellets were thawed (1 g) and resuspended in lysis buffer (5 mL) followed by mixing them using vortex until milky. For purification, cells were lysed by sonication conducting (6 times 15-second pulse, duty cycle 10%, output control no 3) using Ultrasonic Cell Disruptor, Branson Sonifier 450, Germany. The lysate was incubated on ice for 1 hour and then centrifuged at 8000 rpm for 1 hour at 4°C. The soluble 6x-His-NS2B/NS3protease in its native form was filtered ([…]), batch-bound to 2 x 2 ml Ni^2+-NTA (nickel-nitrilotriacetic acid) resin (pre-equilibrated with column buffer) and incubated overnight at 4°C. The resin was cleaned up from the unbound fraction by centrifugation and the resin with bound protein was collected and loaded into columns (Bio-Rad; 1 x 3 cm). The gradient technique columns were washed extensively with 3 x 15 ml of wash buffer and further eluted with 10 ml of elution buffer for each column while being monitored using Bio-Rad Bradford protein assay. The purified protein was then analysed with 12% SDS-PAGE, pooled and stored at -80°C for further use in the dengue protease activity and inhibition studies. The dengue protease activity assay was developed as previously described with a slight modification. Briefly, the assay system comprised of 200 mM Tris-HCl (pH 8.5) buffer, DENV-2 NS2B/NS3pro and Boc-GRR-MCA as the substrate. Protease optimum assay was executed to ascertain maximum protease activity at constant concentration of the substrate (25 μM). The protease concentrations were varied within 0–10 μM. The 7-Amino-4-methylcoumarin (AMC) produced was measured as fluorescence intensity at λexcitation of 340 nm and λemission of 440 nm by using ELISA modulus microplate reader.
The compounds were also checked for its requirement to pass the pan assay interference compounds (PAINS) (http://cbligand.org/PAINS/) before tested for their inhibition activities against DENV-2 NS2B/NS3pro at a range of concentrations (0 to 300 μg/mL). […] The concentration of the protease being used was 3 μM initially incubated with the compound for 10 minutes at 37°C with 200 rpm of rotation. Subsequently, 25 μM of the substrate was added and the incubation was further prolonged for 60 minutes. The fluorescence intensity at 340/ 440 nm was measured as the AMC byproduct was released upon the peptide substrate cleavage by the protease. The experiments were triplicated and Panduratin A was used as the positive control.

Assay [2] concerns the target T1, DENV-2 NS2B/NS3pro. More on the design: method as in PMID 16621533. Particulars: competitive inhibition; cited from earlier work.
Where [3] appears, read: TG derivatives, Table 2, read-out: IC50.
Setting [4] is: six newly designed compounds, Table 3, read-out: IC50.

T1 sequence (P14340 1398-1437): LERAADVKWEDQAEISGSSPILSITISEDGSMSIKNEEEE
T1 sequence (P14340 1476-1653): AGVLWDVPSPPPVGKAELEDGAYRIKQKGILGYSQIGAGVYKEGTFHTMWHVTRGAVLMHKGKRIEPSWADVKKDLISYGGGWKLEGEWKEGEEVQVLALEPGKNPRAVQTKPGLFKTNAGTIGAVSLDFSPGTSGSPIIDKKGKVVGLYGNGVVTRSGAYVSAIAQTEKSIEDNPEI

As usually defined, the IC50 is the point on the concentration scale where inhibition reaches its midpoint. For the compound `COc1cccc(S(=O)(=O)Nc2nc(S)c3nc[nH]c3n2)c1` [Compound 4], the IC50 at DENV-2 NS2B/NS3pro [1] (setting [3]) turned out to be 68 µM. On to `COc1ccc(S(=O)(=O)Nc2nc(S)c3nc[nH]c3n2)cc1` [Compound 5], for which, on DENV-2 NS2B/NS3pro [1] (setting [3]), the IC50 came to 55 µM.

Regarding `CCC(=O)Nc1nc(SC(=O)CC)c2nc[nH]c2n1` [Compound 16], on DENV-2 NS2B/NS3pro [1] (setting [4]), the IC50 came out at 97 µM. Turning to `CC(C)C(=O)Nc1nc(SC(=O)C(C)C)c2nc[nH]c2n1` [Compound 17], at DENV-2 NS2B/NS3pro [1] (setting [4]), the IC50 was 80 µM. The same measure, in the same setting: to `CCCCC(=O)Nc1nc(SC(=O)CCCC)c2nc[nH]c2n1` [Compound 18] belongs 0.38 µM. In the case of `CCCCC(=O)Nc1nc(SCc2ccccc2)c2nc[nH]c2n1` [Compound 19], at DENV-2 NS2B/NS3pro [1] (setting [4]), the IC50 was 54 µM. With `CC(C)Cn1cnc2c(SCc3cccc4ccccc34)nc(N)nc21` [Compound 20], the IC50 on DENV-2 NS2B/NS3pro [1] (setting [4]) was determined as 258 µM. As to `CCCCC(=O)Nc1nc(SCc2ccccc2)c2ncn(Cc3ccccc3)c2n1` [Compound 21], on DENV-2 NS2B/NS3pro [1] (setting [4]), the IC50 came to 16 µM.

As a reminder, the Ki is the dissociation constant of the complex between target and ligand, obtained from inhibition or displacement. With `COc1cc(O)c(C(=O)[C@@H]2[C@H](CC=C(C)C)C(C)=CC[C@H]2c2ccccc2)c(O)c1` [Panduratin A, panduratin A, reference compound], the IC50 on DENV-2 NS2B/NS3pro [1] (NCI diversity set hits, read-out: Experimental IC50) was determined as 56 µM. Also, the Ki on DENV-2 NS2B/NS3pro [2] is 25 µM. What is called inhibition is the relative decrease from the control value, in per cent. Low values mean little suppression, high ones strong suppression. For `Nc1nc2nc[nH]c2c(=S)[nH]1` [TG, thioguanine], on DENV-2 NS2B/NS3pro [1], the inhibition at 200 µg/mL was 56%. Further, the IC50 on DENV-2 NS2B/NS3pro [1] (setting [3]) is 753 µM.
